Source: patent US12227482B2, “Compounds and compositions for the treatment of cancer” (The Regents of the University of California, priority 2016, dated 2025)

Experiments:
Assay type in all cases: cell-based
Conditions in all cases: 72 hours treatment, cell survival by CellTiter-Glo, 2% fetal bovine serum
LOX cells = assay: Cell viability (CellTiter-Glo ATP content) in LOX cells
Method: (§1) Logarithmically growing A549, LOX and MelJuSo cells (ATCC) were plated in antibiotic-free RPMI medium (Coming) supplemented with 2% fetal bovine serum (Gemini Bio-products) at a density of 5,000 cells per well in clear-bottom 96-well plates. The next day cells were treated (triplicates) with increasing doses of a compound of the present disclosure (dissolved in DMSO) and DMSO vehicle controls (final DMSO concentration of 0.5%) for 72 hours and subsequently assessed for cell viability by measuring ATP content with CellTiter-Glo Luminescent Cell Viability Assay (Promega). Signal intensity was measured on a Glomax™ 96 Microplate Luminometer (Promega) and percent cell survival was calculated based on the reading of vehicle control cells set as 100%.

MelJuSo cells = assay: Cell viability (CellTiter-Glo ATP content) in MelJuSo cells
Method: as §1

A549 cells = assay: Cell viability (CellTiter-Glo ATP content) in A549 cells
Method: as §1

SMILES | IC50 (LOX cells; LOX, 72 h) [µM] | IC50 (MelJuSo cells; Homo sapiens, MEL-JUSO) [µM] | IC50 (A549 cells; Homo sapiens, A549, 72 h) [µM] | IC50 (LOX cells) [µM] | IC50 (MelJuSo cells) [µM] | IC50 (A549 cells) [µM]
CCCCC1C(c2ccc(F)cc2)=NN(c2ccccc2)C1(C)C(=O)NCC1CCCCC1 (stereo not drawn) [Compound 51, 4-butyl-N-(cyclohexylmethyl)-3-(4-fluorophenyl)-5-methyl-1-phenyl-4,5-dihydro-1H-pyrazole-5-carboxamide] | > 2 | > 2 | > 2 | – | – | –
CCCCC1C(c2ccc(F)cc2)=NN(c2ccccc2)C1(C)C(=O)N(C)Cc1cc(OC)cc(OC)c1 (stereo not drawn) [Compound 52, 4-butyl-N-(3,5-dimethoxybenzyl)-3-(4-fluorophenyl)-N,5-dimethyl-1-phenyl-4,5-dihydro-1H-pyrazole-5-carboxamide] | > 2 | > 2 | > 2 | – | – | –
CCCCC1C(c2ccc(Cl)cc2F)=NN(c2ccccc2)C1(C)C(=O)NCCCC(C)(C)CO (stereo not drawn) [Compound 53, 4-butyl-3-(4-chloro-2-fluorophenyl)-N-(5-hydroxy-4,4-dimethylpentyl)-5-methyl-1-phenyl-4,5-dihydro-1H-pyrazole-5-carboxamide] | > 2 | > 2 | > 2 | – | – | –
CCCCC1C(c2ccc(Cl)cc2F)=NN(c2ccccc2)C1(C)C(=O)NCCOC (stereo not drawn) [Compound 54, 4-butyl-3-(4-chloro-2-fluorophenyl)-N-(2-methoxyethyl)-5-methyl-1-phenyl-4,5-dihydro-1H-pyrazole-5-carboxamide] | > 2 | > 2 | > 2 | – | – | –
CCCCC1C(c2ccc(F)cc2)=NN(c2cccc(C)c2)C1(C)C(=O)NCCOC (stereo not drawn) [Compound 55, 4-butyl-3-(4-fluorophenyl)-N-(2-methoxyethyl)-5-methyl-1-m-tolyl-4,5-dihydro-1H-pyrazole-5-carboxamide] | < 0.25 | < 0.25 | 0.25 to 0.5 | – | – | –
CCCCC1C(c2ccc(F)cc2F)=NN(c2ccccc2)C1(C)C(=O)NCCCC(C)(C)CO (stereo not drawn) [Compound 56, 4-butyl-3-(2,4-difluorophenyl)-N-(5-hydroxy-4,4-dimethylpentyl)-5-methyl-1-phenyl-4,5-dihydro-1H-pyrazole-5-carboxamide] | 1 to 2 | 0.5 to 1 | > 2 | – | – | –
CCCCC1C(c2ccc(F)cc2F)=NN(c2ccccc2)C1(C)C(=O)NCCOC (stereo not drawn) [Compound 57, 4-butyl-3-(2,4-difluorophenyl)-N-(2-methoxyethyl)-5-methyl-1-phenyl-4,5-dihydro-1H-pyrazole-5-carboxamide] | 0.5 to 1 | 0.5 to 1 | 1 to 2 | – | – | –
CCCCC1C(c2ccc(Cl)cc2)=NN(c2ccccc2)C1(C)C(=O)NCCOC (stereo not drawn) [Compound 58, 4-butyl-3-(4-chlorophenyl)-N-(2-methoxyethyl)-5-methyl-1-phenyl-4,5-dihydro-1H-pyrazole-5-carboxamide] | 1 to 2 | 1 to 2 | > 2 | – | – | –
CCCCC1C(c2ccc(F)cc2)=NN(c2ccc(C)cc2)C1(C)C(=O)NCCOC (stereo not drawn) [Compound 59, 4-butyl-3-(4-fluorophenyl)-N-(2-methoxyethyl)-5-methyl-1-p-tolyl-4,5-dihydro-1H-pyrazole-5-carboxamide] | < 0.25 | < 0.25 | 0.25 to 0.5 | – | – | –
COCCNC(=O)C1(C)C(c2cccs2)C(c2ccc(F)cc2)=NN1c1ccc(F)cc1F (stereo not drawn) [Compound 60, 1-(2,4-difluorophenyl)-3-(4-fluorophenyl)-N-(2-methoxyethyl)-5-methyl-4-(thiophen-2-yl)-4,5-dihydro-1H-pyrazole-5-carboxamide] | < 0.25 | < 0.25 | 0.25 to 0.5 | – | – | –
CCCCC1C(c2ccc(F)cc2)=NN(c2cccc(C)c2)C1(C)C(=O)NCCCC(C)(C)CO (stereo not drawn) [Compound 61, 4-butyl-3-(4-fluorophenyl)-N-(5-hydroxy-4,4-dimethylpentyl)-5-methyl-1-m-tolyl-4,5-dihydro-1H-pyrazole-5-carboxamide] | 1 to 2 | 0.5 to 1 | > 2 | – | – | –
CCCCC1C(c2ccc(F)cc2)=NN(c2ccc(C)cc2)C1(C)C(=O)NCCCC(C)(C)CO (stereo not drawn) [Compound 62, 4-butyl-3-(4-fluorophenyl)-N-(5-hydroxy-4,4-dimethylpentyl)-5-methyl-1-p-tolyl-4,5-dihydro-1H-pyrazole-5-carboxamide] | – | – | – | 0.5 to 1 | 0.25 to 0.5 | > 2
COCCNC(=O)C1(C)C(c2cccs2)C(c2ccc(F)cc2)=NN1c1ccc(C)cc1 (stereo not drawn) [Compound 63, 3-(4-fluorophenyl)-N-(2-methoxyethyl)-5-methyl-4-(thiophen-2-yl)-1-p-tolyl-4,5-dihydro-1H-pyrazole-5-carboxamide] | < 0.25 | < 0.25 | 0.25 to 0.5 | – | – | –
CCCCC1C(c2ccc(F)cc2)=NN(c2ccc(Cl)cc2F)C1(C)C(=O)NCCOC (stereo not drawn) [Compound 64, 4-butyl-1-(4-chloro-2-fluorophenyl)-3-(4-fluorophenyl)-N-(2-methoxyethyl)-5-methyl-4,5-dihydro-1H-pyrazole-5-carboxamide] | < 0.25 | < 0.25 | 0.25 to 0.5 | – | – | –
CCCCC1C(c2ccc(F)cc2)=NN(c2ccccc2)C1(C)C(=O)NCCCN1CCOCC1 (stereo not drawn) [Compound 65, 4-butyl-3-(4-fluorophenyl)-5-methyl-N-(3-morpholinopropyl)-1-phenyl-4,5-dihydro-1H-pyrazole-5-carboxamide] | > 2 | > 2 | > 2 | – | – | –
CCCCC1C(c2ccc(F)cc2)=NN(c2ccccc2)C1(C)C(=O)NCc1ccc(O)c(OC)c1 (stereo not drawn) [Compound 66, 4-butyl-3-(4-fluorophenyl)-N-(4-hydroxy-3-methoxybenzyl)-5-methyl-1-phenyl-4,5-dihydro-1H-pyrazole-5-carboxamide] | > 2 | > 2 | > 2 | – | – | –
CCCCC1C(c2ccc(F)cc2)=NN(c2ccccc2)C1(C)C(=O)NCc1cccs1 (stereo not drawn) [Compound 67, 4-butyl-3-(4-fluorophenyl)-5-methyl-1-phenyl-N-(thiophen-2-ylmethyl)-4,5-dihydro-1H-pyrazole-5-carboxamide] | > 2 | > 2 | > 2 | – | – | –
CCCCC1C(c2ccc(F)cc2)=NN(c2ccccc2)C1(C)C(=O)NCC1CCCCO1 (stereo not drawn) [Compound 68, 4-butyl-3-(4-fluorophenyl)-5-methyl-1-phenyl-N-((tetrahydro-2H-pyran-2-yl)methyl)-4,5-dihydro-1H-pyrazole-5-carboxamide] | 1 to 2 | 0.5 to 1 | > 2 | – | – | –
CCCCC1C(c2ccc(F)cc2)=NN(c2ccccc2)C1(C)C(=O)NC(C)c1ccc(S(C)(=O)=O)cc1 (stereo not drawn) [Compound 69, 4-butyl-3-(4-fluorophenyl)-5-methyl-N-(1-(4-(methylsulfonyl)phenyl)ethyl)-1-phenyl-4,5-dihydro-1H-pyrazole-5-carboxamide] | > 2 | > 2 | > 2 | – | – | –
CCCCC1C(c2ccc(F)cc2)=NN(c2ccccc2)C1(C)C(=O)NCCF (stereo not drawn) [Compound 70, 4-butyl-N-(2-fluoroethyl)-3-(4-fluorophenyl)-5-methyl-1-phenyl-4,5-dihydro-1H-pyrazole-5-carboxamide] | 1 to 2 | 0.5 to 1 | > 2 | – | – | –
CCCCC1C(c2ccc(F)cc2)=NN(c2ccccc2)C1(C)C(=O)NCCCN1CCCCC1 (stereo not drawn) [Compound 71, 4-butyl-3-(4-fluorophenyl)-5-methyl-1-phenyl-N-(3-(piperidin-1-yl)propyl)-4,5-dihydro-1H-pyrazole-5-carboxamide] | > 2 | > 2 | > 2 | – | – | –
CCCCC1C(c2ccc(F)cc2)=NN(c2ccccc2)C1(C)C(=O)NCC(C)(C)C (stereo not drawn) [Compound 72, 4-butyl-3-(4-fluorophenyl)-5-methyl-N-neopentyl-1-phenyl-4,5-dihydro-1H-pyrazole-5-carboxamide] | > 2 | > 2 | > 2 | – | – | –
CCCCC1C(c2ccc(F)cc2)=NN(c2ccccc2)C1(C)C(=O)NCC1CC1 (stereo not drawn) [Compound 73, 4-butyl-N-(cyclopropylmethyl)-3-(4-fluorophenyl)-5-methyl-1-phenyl-4,5-dihydro-1H-pyrazole-5-carboxamide] | 1 to 2 | 1 to 2 | > 2 | – | – | –
CCCCC1C(c2ccc(F)cc2)=NN(c2ccccc2)C1(C)C(=O)NCC(C)(C)N(C)C (stereo not drawn) [Compound 74, 4-butyl-N-(2-(dimethylamino)-2-methylpropyl)-3-(4-fluorophenyl)-5-methyl-1-phenyl-4,5-dihydro-1H-pyrazole-5-carboxamide] | > 2 | > 2 | > 2 | – | – | –
CCCCC1C(c2ccc(F)cc2)=NN(c2ccccc2)C1(C)C(=O)NCCC(C)N(C)C (stereo not drawn) [Compound 75, 4-butyl-N-(3-(dimethylamino)butyl)-3-(4-fluorophenyl)-5-methyl-1-phenyl-4,5-dihydro-1H-pyrazole-5-carboxamide] | > 2 | > 2 | 0.5 to 1 | – | – | –
CCCCC1C(c2ccc(F)cc2)=NN(c2ccccc2)C1(C)C(=O)NCC(C)N(C)C (stereo not drawn) [Compound 76, 4-butyl-N-(2-(dimethylamino)propyl)-3-(4-fluorophenyl)-5-methyl-1-phenyl-4,5-dihydro-1H-pyrazole-5-carboxamide] | > 2 | > 2 | > 2 | – | – | –
CCCCC1C(c2ccc(F)cc2)=NN(c2ccccc2)C1(C)C(=O)NCC(C)CN(C)C (stereo not drawn) [Compound 77, 4-butyl-N-(3-(dimethylamino)-2-methylpropyl)-3-(4-fluorophenyl)-5-methyl-1-phenyl-4,5-dihydro-1H-pyrazole-5-carboxamide] | > 2 | > 2 | 0.25 to 0.5 | – | – | –
